The structures appear in SMILES notation. Values joined by “and” are separate entries in the source; they are usually repeats but may differ in a detail not shown here. Equal entries are not always repeated.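 These data come from cells grown in 96-well plates and exposed to compound for 48 hours at five concentrations. Here, GI50 denotes the concentration required for 50% inhibition of growth. TGI marks complete inhibition of growth.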

In this test the test system is MDA-MB-468 breast. In words: NCI anticancer screen, dose series, 48 h.
With `CCN(CC)CCOc1ccc(NC(=O)C(C(C)C)N2C(=O)/C(=C/c3ccc(Br)cc3)SC2=S)cc1` (stereo unspecified), the GI50 was 1920 nM and the TGI is 3940 nM.
Taken in the same sequence, the figures for `O=C1NC(c2cccc3ccccc23)Nc2ccccc21` (stereo unspecified) were 127 nM and above 100000 nM.
Turning to `COc1ccc(C(=O)/C=C/c2c(C(F)(F)F)nc3ccccn23)cc1OC`, the GI50 was 1810 nM and the TGI was determined as 5060 nM.
`O=c1[nH][nH]c(=O)c2c(O)c(-c3ccccc3)ncc12`: the GI50 was 25200 nM and 48200 nM; the TGI is 55800 nM and 235000 nM.
Regarding `CN(C)C[C@@H]1CCn2cc(c3ccccc32)C2=C(C(=O)NC2=O)c2cn(c3ccccc23)CCO1`, the GI50 is 2170 nM and the TGI was above 10000 nM.
The like results for `N#Cc1ccc(C(=O)c2cnn(-c3ccc(F)cc3)c2N)cc1` were, in that order, above 25000 nM and above 25000 nM.
For the molecule `O=c1oc2ccc(I)cc2c(=O)n1-c1ccc(I)cc1F`, the GI50 was 521 nM and the TGI stood at 2940 nM.
For the molecule `CCN(CC)CCNc1ccc(N=Nc2cnc3ccccc3c2)c2ccccc12`, the GI50 was 1340 nM and the TGI was 2640 nM.
On to `O=C(C(=O)c1cccnc1)c1cccnc1`, for which the GI50 was above 100000 nM and the TGI was above 100000 nM.
Take `CN(CCCCCCCCNc1ccnc2ccccc12)Cc1ccc(-c2ccc(-c3ccc(C#N)cc3)s2)cc1`: the GI50 is 69.8 nM and the TGI came to 1290 nM.
On to `COc1cc(C(=O)c2cnc(-c3ccc4cc[nH]c4c3)[nH]2)cc(OC)c1OC`, for which the GI50 was 32.7 nM and the TGI came to 2660 nM.
In the case of `C#Cc1cccc(Nc2ncnc3ccc(-c4cnc(N)nc4)cc23)c1`, the GI50 is 376 nM and the TGI worked out at 1770 nM.
Regarding `CCCn1cc(/C=N\N=C2\C(=O)Nc3ccc(C)cc32)c2ccccc21`, the GI50 is 1690 nM and the TGI came to 5780 nM.
With `CCc1c2c(nc3ccc(OC(=O)OCc4ccc(B5OC(C)(C)C(C)(C)O5)cc4)cc13)-c1cc3c(c(=O)n1C2)COC(=O)[C@]3(O)CC`, the GI50 is below 10 nM and the TGI is 54.5 nM.
Take `COC1/C=C/OC2(C)Oc3c(C)c(O)c4c(O)c(c(/C=N/N(c5ccccc5)c5ccccc5)c(O)c4c3C2=O)NC(=O)C(C)=C/C=C/C(C)C(O)C(C)C(O)C(C)C(OC(C)=O)C1C` (stereo unspecified): the GI50 is 1840 nM and the TGI was determined as 7500 nM.
Take `COc1ccccc1-c1ccc2c(N)c(C(=O)c3ccc4c(c3)OCO4)sc2n1`: the GI50 is 2430 nM and the TGI is 8640 nM.
Regarding `Oc1ccccc1/C=N\Nc1ccccc1`, the GI50 was 4930 nM and the TGI is 55800 nM.
With `COc1ccc(Cl)cc1Nc1nc(C(F)(F)F)ccc1C(=O)N/N=C/c1ccccc1Cl`, the GI50 was 1850 nM and the TGI was 18500 nM.
As for `Fc1ccc(-c2c(-c3ccncc3)[nH]c3cccnc23)cc1`, the GI50 is 3780 nM and the TGI came to 24700 nM.
Take `CC(=O)OCC1OC([S-])C(OC(C)=O)C(OC(C)=O)C1OC(C)=O.[Au+].c1ccc(CN2[CH-]N(Cc3ccccc3)C(c3ccccc3)=C2c2ccccc2)cc1`: the GI50 was 1630 nM and 306 nM; the TGI was 3410 nM and 1170 nM.
Regarding `CCCCNP1(NCCCC)=NP(NCCCC)(NCCCC)=NP(NCCCC)(NCCCC)=NP(NCCCC)(NCCCC)=N1`, the GI50 was 194 nM and the TGI is 2910 nM.
For the molecule `O=C(CCN1CCCC1)Nc1ccc2c(Nc3ccc(Br)cc3)c3ccccc3nc2c1`, the GI50 was 1720 nM and the TGI was 3270 nM.
The like results for `O=C1/C=C/[C@@H](O)[C@@H]2C[C@@H](O)C[C@H]2/C=C/CCC[C@H](CCc2ccc(NC(=S)Nc3ccc4c(c3)C(=O)OC43c4ccc(O)cc4Oc4cc(O)ccc43)cc2)O1` were, in that order, 178 nM and 449 nM.
As for `CC[C@H](C)C(=O)O[C@H]1CCC=C2C=C[C@H](C)[C@H](CC[C@@H]3C[C@@H](O)CC(=O)O3)[C@H]21`, the GI50 was 3130 nM and the TGI was 11600 nM.
With `O=C(Nc1cccc(-n2ccc3c(NC(=O)c4ccccc4)nccc32)c1)c1ccc(Cl)c(Cl)c1`, the GI50 was 176 nM and the TGI was 903 nM.
Turning to `O=C1c2c(c3c4ccccc4n(CCCCCCN4CCOCC4)c3c3[nH]c4ccccc4c23)C(=O)N1O`, the GI50 was 1970 nM and the TGI was 4690 nM.
For `CN(C)CCN(C)c1ccc2ncc(C#Cc3cncc(C(=O)Nc4ccc(CN5CCN(C)CC5)c(C(F)(F)F)c4)c3)n2n1`, the GI50 was 3080 nM and the TGI came out at 9910 nM.
For the molecule `Cc1ccc2c(c1)C(=O)/C(=C/c1cccc(OCC(=O)c3ccc(Cl)cc3)c1)CS2`, the GI50 is 2410 nM and the TGI worked out at 7070 nM.
On to `CN(C)c1ccc2cc3c(cc2c1)Oc1ccccc1N3.[Cl][Zn][Cl]`, for which the GI50 is 1090 nM and the TGI amounted to 3150 nM.
Regarding `CC1=C[C@H]2O[C@@H]3C[C@H]4OC(=O)/C=C\C=C\[C@H]([C@@H](C)O)OCC/C(C)=C/C(=O)OC[C@@]2(CC1)[C@]4(C)[C@]31CO1`, the GI50 was 3.56 nM and the TGI was 12.4 nM.
`CCCCCCCCCCCCSC1=CC(=O)C=CC1=O`: the GI50 was 7090 nM and the TGI is above 34600 nM.
Take `N#Cc1ccc(O)c(C2=NCC(c3ccc(-c4ccccc4)cc3)O2)c1` (stereo unspecified): the GI50 was 256 nM and the TGI worked out at 1810 nM.
The like results for `Cc1cnc(-c2ccc(-c3ccc(NC(=O)Nc4cccc(C(F)(F)F)c4)cc3F)c3c2C(=O)NC3)[nH]1` were, in that order, 12600 nM and 31100 nM.
`Cn1cc(-c2csc(-c3cn(CCCN4CCCCC4)c4ccc(Br)cc34)n2)c2cccnc21`: the GI50 is 1860 nM and the TGI stood at 3550 nM.
As for `CN1CCN(C(=O)[C@@]2(C)CC[C@]3(C)CC[C@]4(C)C(=CC[C@@H]5[C@@]6(C)CC[C@H](OC(=O)c7cccnc7)C(C)(C)[C@@H]6CC[C@]54C)[C@@H]3C2)CC1`, the GI50 is 1710 nM and the TGI was 3510 nM.
As to `COc1ccc2c(c1)C(=O)/C(=C/c1cccc(OCC(=O)c3ccc([N+](=O)[O-])cc3)c1)CO2`, the GI50 is 1580 nM and the TGI is 3510 nM.
Turning to `COc1ccc2[nH]cc(C3(c4c[nH]c5ccc(OC)cc45)C(=O)Nc4ccc(Cl)cc43)c2c1`, the GI50 is 2500 nM and the TGI came out at 7850 nM.
Regarding `CC[C@H](C)[C@H](NC(=O)[C@H]1CCCCN1C)C(=O)N(C)[C@H](C[C@@H](OC(C)=O)c1nc(C(=O)NC23C4C5C2C2C3C4C52C(=O)OC)cs1)C(C)C` (stereo partly specified), the GI50 was 0.428 nM and < 2.5 nM; the TGI was 6.95 nM and < 2.5 nM.
Regarding `C=C1C(=O)O[C@H]2[C@H]1CC/C(CNC(=O)C(C)c1ccc(CC(C)C)cc1)=C\CC[C@@]1(C)O[C@@H]21` (stereo partly specified), the GI50 was 1430 nM and the TGI was determined as 3120 nM.
On to `COc1ccc(-c2nsc3c2NC(=O)CC3c2cccc(F)c2)cc1` (stereo unspecified), for which the GI50 is 1940 nM and the TGI turned out to be 6980 nM.
With `COc1ccc(C2CC(c3ccc4ccccc4c3)=NN2c2nc(O)c(C3=c4cc(Cl)ccc4=NC3=O)s2)cc1` (stereo unspecified), the GI50 was 21 nM and < 5 nM.
